In US9168259B2 (GRÜNENTHAL GMBH, priority 2010, dated 2015) one finds Emax and EC50 data, which are given here for 29 compounds.

For the experiment, the target named is T1, KCNQ2/3 channels (Homo sapiens, UniProt O43525+O43526).
T1 construct: expressed in transfected cells
Put plainly: Fluorescence assay using a voltage sensitive dye (fluorimetry). The class given is cell-based. The following applies: CHO-K1 cells expressing KCNQ2/3; for Emax: CHO-K1, plateau effect relative to saturated retigabine (50 μM) = 100%, negative values = antagonistic, read-out: Fluorimetry % efficacy (retigabine = 100%); for EC50: IC50 where % efficacy is negative, read-out: Fluorimetry EC50/IC50.

SMILES strings stand for the structures.

T1 sequence (O43526 whole entry): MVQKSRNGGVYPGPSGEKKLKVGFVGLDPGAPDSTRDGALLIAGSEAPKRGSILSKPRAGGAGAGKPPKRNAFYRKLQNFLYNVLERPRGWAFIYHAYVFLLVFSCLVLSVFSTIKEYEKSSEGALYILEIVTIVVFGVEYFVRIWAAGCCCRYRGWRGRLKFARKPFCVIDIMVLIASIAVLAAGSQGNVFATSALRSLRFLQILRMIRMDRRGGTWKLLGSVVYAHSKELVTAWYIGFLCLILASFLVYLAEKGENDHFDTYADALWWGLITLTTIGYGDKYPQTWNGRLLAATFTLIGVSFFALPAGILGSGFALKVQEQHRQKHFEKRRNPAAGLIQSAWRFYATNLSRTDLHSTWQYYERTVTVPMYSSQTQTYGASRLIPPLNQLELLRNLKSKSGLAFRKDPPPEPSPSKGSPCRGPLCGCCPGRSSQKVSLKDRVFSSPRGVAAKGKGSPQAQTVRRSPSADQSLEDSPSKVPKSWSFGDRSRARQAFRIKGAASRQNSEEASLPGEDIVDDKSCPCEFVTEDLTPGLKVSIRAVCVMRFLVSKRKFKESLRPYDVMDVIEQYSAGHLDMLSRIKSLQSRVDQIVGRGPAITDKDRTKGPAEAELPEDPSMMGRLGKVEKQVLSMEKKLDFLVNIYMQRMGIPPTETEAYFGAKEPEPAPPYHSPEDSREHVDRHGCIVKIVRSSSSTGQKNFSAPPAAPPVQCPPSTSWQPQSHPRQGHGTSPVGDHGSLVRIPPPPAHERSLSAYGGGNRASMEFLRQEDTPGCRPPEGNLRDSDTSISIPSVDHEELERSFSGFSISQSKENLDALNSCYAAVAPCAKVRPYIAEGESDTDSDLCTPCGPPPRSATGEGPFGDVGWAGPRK
T1 sequence (O43525 whole entry): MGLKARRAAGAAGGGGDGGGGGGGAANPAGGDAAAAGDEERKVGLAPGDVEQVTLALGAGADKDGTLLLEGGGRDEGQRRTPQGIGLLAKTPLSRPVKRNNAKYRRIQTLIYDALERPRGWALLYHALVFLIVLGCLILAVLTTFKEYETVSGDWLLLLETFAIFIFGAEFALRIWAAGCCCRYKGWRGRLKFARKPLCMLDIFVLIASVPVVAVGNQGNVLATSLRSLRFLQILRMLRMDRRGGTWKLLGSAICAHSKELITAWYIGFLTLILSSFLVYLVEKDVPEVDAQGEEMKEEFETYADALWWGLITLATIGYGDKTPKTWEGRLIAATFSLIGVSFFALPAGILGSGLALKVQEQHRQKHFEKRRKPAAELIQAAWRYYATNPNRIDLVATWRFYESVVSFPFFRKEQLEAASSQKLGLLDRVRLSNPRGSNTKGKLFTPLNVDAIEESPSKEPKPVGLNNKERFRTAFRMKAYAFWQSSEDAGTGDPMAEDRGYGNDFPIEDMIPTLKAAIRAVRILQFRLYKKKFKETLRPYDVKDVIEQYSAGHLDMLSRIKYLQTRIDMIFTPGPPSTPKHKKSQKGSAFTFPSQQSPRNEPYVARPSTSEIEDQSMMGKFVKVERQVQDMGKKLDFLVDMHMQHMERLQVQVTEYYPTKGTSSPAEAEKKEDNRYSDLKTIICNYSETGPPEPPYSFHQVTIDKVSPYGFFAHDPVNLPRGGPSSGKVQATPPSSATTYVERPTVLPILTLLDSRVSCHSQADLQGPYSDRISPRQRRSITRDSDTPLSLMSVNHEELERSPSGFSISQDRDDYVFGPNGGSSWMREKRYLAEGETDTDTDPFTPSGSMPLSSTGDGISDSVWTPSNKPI

For the compound `CCN(C)c1nc(N2CCOC[C@H]2C)cc(C)c1C(=O)NCc1ccc(F)cc1` [Example 173, 2-(Ethyl-methyl-amino)-N-[(4-fluorophenyl)-methyl]-4-methyl-6-[(3R)-3-methyl-morpholin-4-yl]-pyridine-3-carboxylic acid amide], the Emax stood at 259% and the EC50 is 201 nM. As for `CCN(C)c1nc(N2CCOCC2)cc(C)c1C(=O)NCc1ccc(F)cc1` [Example 174, 2-(Ethyl-methyl-amino)-N-[(4-fluorophenyl)-methyl]-4-methyl-6-morpholin-4-yl-pyridine-3-carboxylic acid amide], the Emax worked out at 221% and the EC50 came out at 422 nM. In the case of `CCSc1nc(N(C)CC2CCCOC2)cc(C)c1C(=O)NCc1cccc(F)c1` (stereo not drawn) [Example 175, 2-Ethylsulfanyl-N-[(3-fluorophenyl)-methyl]-4-methyl-6-[methyl-(tetrahydro-pyran-3-yl-methyl)-amino]-pyridine-3-carboxylic acid amide], the Emax is 114% and the EC50 came to 870 nM. For the compound `CSc1nc(N2CCOC[C@H]2C)cc(C)c1C(=O)NCc1ccc(F)cc1` [Example 176, N-[(4-Fluorophenyl)-methyl]-4-methyl-6-[(3R)-3-methyl-morpholin-4-yl]-2-methylsulfanyl-pyridine-3-carboxylic acid amide], the Emax amounted to 215% and the EC50 was found to be 136 nM.

As to `CCSc1nc(N2CCOC[C@H]2C)cc(C)c1C(=O)NCc1ccc(F)cc1` [Example 177, 2-Ethylsulfanyl-N-[(4-fluorophenyl)-methyl]-4-methyl-6-[(3R)-3-methyl-morpholin-4-yl]-pyridine-3-carboxylic acid amide], the Emax stood at 174% and the EC50 was 97 nM. For the compound `CCSc1nc(N2CCOCC2CC)cc(C)c1C(=O)NCc1cccc(F)c1` (stereo not drawn) [Example 178, 6-(3-Ethyl-morpholin-4-yl)-2-ethylsulfanyl-N-[(3-fluorophenyl)-methyl]-4-methyl-pyridine-3-carboxylic acid amide], the Emax came to 147% and the EC50 is 54 nM. Consider `CCSc1nc(N2CCOC[C@H]2COC)cc(C)c1C(=O)NCc1cccc(F)c1` [Example 179, 2-Ethylsulfanyl-N-[(3-fluorophenyl)-methyl]-6-[(3R)-3-(methoxymethyl)-morpholin-4-yl]-4-methyl-pyridine-3-carboxylic acid amide], for which the Emax was 190% and the EC50 was 243 nM.

With `CCSc1nc(N2CCOC[C@@H]2COC)cc(C)c1C(=O)NCc1cccc(F)c1` [Example 180, 2-Ethylsulfanyl-N-[(3-fluorophenyl)-methyl]-6-[(3S)-3-(methoxymethyl)-morpholin-4-yl]-4-methyl-pyridine-3-carboxylic acid amide], the Emax came out at 123% and the EC50 was determined as 86 nM. As to `COc1nc(N2CCOC[C@H]2C)cc(C)c1C(=O)NCc1ccc(F)cc1` [Example 181, N-[(4-Fluorophenyl)-methyl]-2-methoxy-4-methyl-6-[(3R)-3-methyl-morpholin-4-yl]-pyridine-3-carboxylic acid amide], the Emax came out at 167% and the EC50 worked out at 255 nM.

For `CCOc1nc(N2CCOC[C@H]2C)cc(C)c1C(=O)NCc1ccc(F)cc1` [Example 182, 2-Ethoxy-N-[(4-fluorophenyl)-methyl]-4-methyl-6-[(3R)-3-methyl-morpholin-4-yl]-pyridine-3-carboxylic acid amide], the Emax was 146% and the EC50 was found to be 125 nM.

For `Cc1cc(N2CCOC[C@H]2C)nc(N(C)C)c1C(=O)NCCCC(C)(C)C` [Example 183, 2-Dimethylamino-N-(4,4-dimethyl-pentyl)-4-methyl-6-[(3R)-3-methyl-morpholin-4-yl]-pyridine-3-carboxylic acid amide], the Emax came out at 221% and the EC50 was 168 nM. On the same counts, the results for `CCN(C)c1nc(N2CCOC[C@H]2C)cc(C)c1C(=O)NCCCC(C)(C)C` [Example 184, N-(4,4-Dimethyl-pentyl)-2-(ethyl-methyl-amino)-4-methyl-6-[(3R)-3-methyl-morpholin-4-yl]-pyridine-3-carboxylic acid amide] are 228% and 221 nM. For the compound `Cc1cc(N2CCOC[C@H]2C)nc(C(C)C)c1C(=O)NCCCC(C)(C)C` [Example 185, N-(4,4-Dimethyl-pentyl)-2-isopropyl-4-methyl-6-[(3R)-3-methyl-morpholin-4-yl]-pyridine-3-carboxylic acid amide], the Emax amounted to 238% and the EC50 came out at 15 nM. With `COc1nc(N2CCOC[C@H]2C)cc(C)c1C(=O)NCCCC(C)(C)C` [Example 186, N-(4,4-Dimethyl-pentyl)-2-methoxy-4-methyl-6-[(3R)-3-methyl-morpholin-4-yl]-pyridine-3-carboxylic acid amide], the Emax is 240% and the EC50 was 63 nM.

Consider `CCOc1nc(N2CCOC[C@H]2C)cc(C)c1C(=O)NCCCC(C)(C)C` [Example 187, N-(4,4-Dimethyl-pentyl)-2-ethoxy-4-methyl-6-[(3R)-3-methyl-morpholin-4-yl]-pyridine-3-carboxylic acid amide], for which the Emax was 242% and the EC50 worked out at 49 nM. For the compound `CCN(C)c1nc(N2CCOCC2)cc(C)c1C(=O)NCc1ccc(C(F)(F)F)cc1` [Example 188, 2-(Ethyl-methyl-amino)-4-methyl-6-morpholin-4-yl-N-[[4-(trifluoromethyl)-phenyl]-methyl]pyridine-3-carboxylic acid amide], the Emax turned out to be 154% and the EC50 was 343 nM. For `CCN(C)c1nc(N2CCOCC2)cc(C)c1C(=O)NCCCC(C)(C)C` [Example 189, N-(4,4-Dimethyl-pentyl)-2-(ethyl-methyl-amino)-4-methyl-6-morpholin-4-yl-pyridine-3-carboxylic acid amide], the Emax was 225% and the EC50 is 284 nM. For `CCN(C)c1nc(N2CCOCC2)cc(C)c1C(=O)NCCCC(F)(F)F` [Example 190, 2-(Ethyl-methyl-amino)-4-methyl-6-morpholin-4-yl-N-(4,4,4-trifluoro-butyl)-pyridine-3-carboxylic acid amide], the Emax is 207% and the EC50 amounted to 2500 nM. `CCN(C)c1nc(N2CCOCC2)cc(C)c1C(=O)NCc1ccc(Cl)cc1` [Example 191, N-[(4-Chlorophenyl)-methyl]-2-(ethyl-methyl-amino)-4-methyl-6-morpholin-4-yl-pyridine-3-carboxylic acid amide]: the Emax came out at 214% and the EC50 turned out to be 265 nM. Take `CSc1nc(N2CCOC[C@H]2C)cc(C)c1C(=O)NCCCC(C)(C)C` [Example 192, N-(4,4-Dimethyl-pentyl)-4-methyl-6-[(3R)-3-methyl-morpholin-4-yl]-2-methylsulfanyl-pyridine-3-carboxylic acid amide]: the Emax worked out at 236% and the EC50 was found to be 46 nM. Consider `CCSc1nc(N2CCOC[C@H]2C)cc(C)c1C(=O)NCCCC(C)(C)C` [Example 193, N-(4,4-Dimethyl-pentyl)-2-ethylsulfanyl-4-methyl-6-[(3R)-3-methyl-morpholin-4-yl]-pyridine-3-carboxylic acid amide], for which the Emax was determined as 246% and the EC50 was 29 nM. In the case of `CCC(C)c1nc(N2CCOC[C@H]2C)cc(C)c1C(=O)NCc1ccc(F)cc1` (stereo partly drawn) [Example 194, N-[(4-Fluorophenyl)-methyl]-4-methyl-6-[(3R)-3-methyl-morpholin-4-yl]-2-(1-methyl-propyl)-pyridine-3-carboxylic acid amide], the Emax was 189% and the EC50 was 31 nM. As to `CCC(C)c1nc(N2CCOC[C@H]2C)cc(C)c1C(=O)NCCCC(C)(C)C` (stereo partly drawn) [Example 195, N-(4,4-Dimethyl-pentyl)-4-methyl-6-[(3R)-3-methyl-morpholin-4-yl]-2-(1-methyl-propyl)-pyridine-3-carboxylic acid amide], the Emax came out at 242% and the EC50 is 13 nM.

Take `Cc1cc(N2CCOC[C@H]2C)nc(C2CC2)c1C(=O)NCc1ccc(F)cc1` [Example 196, 2-Cyclopropyl-N-[(4-fluorophenyl)-methyl]-4-methyl-6-[(3R)-3-methyl-morpholin-4-yl]-pyridine-3-carboxylic acid amide]: the Emax is 197% and the EC50 stood at 103 nM.

For `CCCc1nc(N2CCOC[C@H]2C)cc(C)c1C(=O)NCc1ccc(F)cc1` [Example 197, N-[(4-Fluorophenyl)-methyl]-4-methyl-6-[(3R)-3-methyl-morpholin-4-yl]-2-propyl-pyridine-3-carboxylic acid amide], the Emax stood at 211% and the EC50 amounted to 142 nM. For `Cc1cc(N2CCOC[C@H]2C)nc(C2CC2)c1C(=O)NCCCC(C)(C)C` [Example 198, 2-Cyclopropyl-N-(4,4-dimethyl-pentyl)-4-methyl-6-[(3R)-3-methyl-morpholin-4-yl]-pyridine-3-carboxylic acid amide], the Emax was 246% and the EC50 was found to be 19 nM. On the same counts, the results for `CCCc1nc(N2CCOC[C@H]2C)cc(C)c1C(=O)NCCCC(C)(C)C` [Example 199, N-(4,4-Dimethyl-pentyl)-4-methyl-6-[(3R)-3-methyl-morpholin-4-yl]-2-propyl-pyridine-3-carboxylic acid amide] are 232% and 50 nM. As for `CCSc1nc(N(C)c2ccncc2)cc(C)c1C(=O)NCc1cccc(F)c1` [Example 200, 2-Ethylsulfanyl-N-[(3-fluorophenyl)-methyl]-4-methyl-6-(methyl-pyridin-4-yl-amino)-pyridine-3-carboxylic acid amide], the Emax was 22%. Turning to `CCSc1nc(N2CCOCC2)cc(C)c1C(=O)NCc1ccc(F)c(C)c1` [Example 201, 2-Ethylsulfanyl-N-[(4-fluoro-3-methyl-phenyl)-methyl]-4-methyl-6-morpholin-4-yl-pyridine-3-carboxylic acid amide], the Emax is 127% and the EC50 was found to be 135 nM.
